Experimental data published in patent publication US20260083126A1, “ANTIMICROBIAL COMPOSITIONS” (AHV International B.V., priority 2022, published 2026).
Converted amounts (≈) assume the structure as drawn. “Also recorded” adds a separate entry of the source. Like-named read-outs stand apart in the source and are kept apart here.

Legend:
[1] = system: Lactococcus garvie Isolate 2; experiment: MIC assay; type: cell-based, Lactococcus garvieae; conditions: for MIC50 / MIC90: Lactococcus
Method: (§1) The exact weighed amount was noted and the volume of solvent to reach a 80 mM dilution calculated. Half of the volume was added first, by adding Tween 80 and let stand for 5 minutes. In a second step, the other half of the volume DMSO was added and resuspended to help the dilution process. The closed tube was inverted 5-10 times and then vortexed very thoroughly for at least 30 seconds. If after this procedure crystals were still visible, the tube was placed in a shaker at 37° C. at 150 rpm for at least 30 minutes (it is indicated if the dissolution period was longer than 2 h). […] In case of Bis(4-Chlorophenyl) thiosulfonate, a lower concentrated stock solution of 2 mM needed to be prepared. For that, the required amount of compound was weighed in and 2% v/v Tween80 and 2% v/v DMSO of the end volume of the stock solution was added to the substance. This mix was heated in a water bath set to 40° C. and occasionally shaken. When the whole amount of the substance reached dissolution, the volume was filled up with growth medium until the end volume. This 2 mM stock solution of Bis(4-Chlorophenyl) thiosulfonate was used in the MIC plate and diluted two-fold, resulting in a testing range of Bis(4-Chlorophenyl) thiosulfonate from 1 mM to 0.002 mM.
(§2) The microorganisms as indicated in Table 4 were used to inoculate a tryptic soy agar (TSA) plate and incubated overnight at 37° C. After incubation 3-5 well-isolated colonies with the same morphology were selected from the TSA plate and resuspended in 2 mL 0.9% saline solution with 3-6 glass beads and vortexed. The optical density at 600 nm (OD600) of the bacterial suspension was measured with a spectrophotometer (Evolution™ 201/220 UV-Visible Spectrophotometer, Thermo Fisher Scientific) and diluted to an OD600 of 0.0008, which resembles 10^6 CFU/mL.
(§3) The MIC assay was performed in a flat-bottom 96-microtiter plate. 50 μL of MHB-II was added into columns 2-11, and 100 μL to column 12 for sterility control. 100 μL of the 8 mM test compound solution (method 1) was added to column 1. A two-fold dilution series of the solution in MHB-II was achieved by resuspending 50 μL of the 8 mM solution from column 1 to column 2. This step was repeated until column 10. The respective concentration of Tween 80 and DMSO in column 1 was 2.5%, which is two-fold diluted throughout the plate. 50 μL of the bacterial suspension was added to column 1-11. The microtiter plates were sealed with adhesive polyethylene film for sealing microplates (Diversified Biotech) and incubated for 24 h at 37° C. After incubation the OD was measured at 600 nm with the Varioskan (Thermo Fisher Scientific). The minimal concentration which causes reduction of final OD600 of the bacterial culture by 50% (MIC50) and by 90% (MIC90) was calculated after normalization of the obtained OD values to the growth control in column 11. This assay was repeated three times in three independent experiments.
(§4) Hereafter, the stock solutions of the compounds were used in three repetitions in a minimal inhibitory concentration (MIC) assay at a 2-fold dilution range with various bacteria from the gram-positive and gram-negative group and a yeast, Candida albicans. The concentrations that show only less than 10% growth after 24 h were considered the MIC90-values, whereas the concentrations that show 50% growth after 24 h when compared to the bacterial growth control were considered the MIC50-values. Escherichia coli and Staphylococcus aureus were used as representatives for a gram-negative bacteria and gram-positive bacteria, respectively. Furthermore, the yeast C. albicans was also tested.
(§5) In an Eppendorf tube between 10-20 mg of the test compound was weighed. Hereafter, the required amount of Tween 80 was added, followed by the amount DMSO. After vigorous shaking, the dissolved and transparent dilutions were diluted 10 times with Mueller Hinton Broth (MHB) for the MIC assay. […]

[2] = system: Staphylococcus aureus (MRSA) LUH14616; experiment: MIC assay; type: cell-based; conditions: for MIC50 / MIC90: Staphylococcus aureus, MRSA
Method: as §1, §2, §3, §4, §5

[3] = system: Escherichia coli ATCC 25922; experiment: MIC assay; type: cell-based; conditions: for MIC50 / MIC90: Escherichia coli, ATCC25922
Method: as §1, §2, §3, §4, §5

[4] = system: Streptococcus agalactiae ATCC 13813; experiment: MIC assay; type: cell-based; conditions: for MIC50 / MIC90: Streptococcus agalactiae, ATCC13813
Method: as §1, §2, §3, §4, §5

HepG2 cell line = experiment: MTT cytotoxicity test; type: cell-based, human; conditions: 24 h, 7.8 μM to 1 mM, emulsified with Tween-80/DMSO
Method: Scope. As standard tests cytotoxicity is measured on Caco-2 and HepG2 cell lines. Cytotoxicity of mentioned cell lines was determined by measuring the amount of converted MTT (3-(4,5-dimethylthiazol-2-yl)-2,5-diphenyltetrazolium bromide) by a mitochondrial dehydrogenase after exposure of various concentrations of the antimicrobial compounds. In living cells the dehydrogenase converts the soluble MTT into water insoluble purple formazan crystals that can not pass the cell membrane. The higher the metabolic activity of the cell, the more purple crystals are formed, the lower the cytotoxicity of the antimicrobial compound. HepG2 adherent cells were isolated from human liver and show epithelial morphology. Culture condition of the cells were followed based on the standard protocols. HepG2 cell line was cultured in 75-cm^2 culture flasks. Dulbecco's modified Eagle's minimum essential medium (DMEM)+Glutamax, supplemented with 10% (v/v) inactivated fetal calf serum (FCS) (Gibco), and penicillin (100 U/ml.)/streptomycin (100 μg/ml.) was utilized as medium for the growing cells. The cells were preserved in an incubator to provide them with the optimum moisture and temperature (humidified atmosphere of 95% air and 5% CO2 at 37° C. for 72 hours). The cells were grown on flat bottom 96-well plates to the appropriate density to run the experiments. The cells were exposed to increasing concentrations of emulsified test compound (8 concentration, ranging from 7.8 μM to 1 mM) in standard culture medium (Catalogue 31331028, ThemoFischer Scientific) for each cell line. It should be noted that all the experiments were conducted in FBS (Catalog A3840101, ThermoFischer Scientific) and antibiotic free medium. The concentration of Tween-80 and DMSO that is present in the assay to emulsify the antimicrobial compound was in the range from 0,007% to 1%. The cells were incubated for 24 h with emulsified test compound and the assay was performed based on the standard protocol. By the end of the experiment the medium (cell supernatants) was removed and the lysis buffer (0.04 M hydrochloric acid, in propan-2-ol) was added to each well to solubilize the purple formazan crystals. As the final step, the absorbance was recorded by a multi-well reader at 595 nm. Control experiment with emulsifiers Tween 80 and DMSO but without antimicrobial compounds was performed in a same way on both cell lines. The results from all experiments were expressed as mean #standard error of the mean (SEM) conducted in triplicate (three wells/condition) of three independent experiments. Differences between results were statistically evaluated using One-way ANOVA with Bonferroni post-hoc test.

[5] = Example 2a, n = 3, Isolate 2, read-out: MIC90 Lactococcus garvie (+)
[6] = Example 2b, FIG. 1, no MIC90 detected in the tested range, read-out: Average MIC90 L. garvieae (Lg)
[7] = Example 2a, n = 3, LUH14616, read-out: MIC90 Staphylococcus aureus (+) (MRSA)
[8] = Example 2a, n = 3, ATCC 25922, read-out: MIC90 Escherichia coli
[9] = Example 2b, FIG. 1, no MIC90 detected in the tested range, read-out: Average MIC90 E. coli (Ec)
[10] = Example 2a, n = 3, ATCC 13813, read-out: MIC90 Streptococcus agalactiae (+)

Compound	MIC50 Lactococcus garvie (+) ([1]; Example 2a, n = 3, Isolate 2) [µM]	MIC90 Lactococcus garvie (+) ([1]; Example 2a, n = 3, Isolate 2) [µM]	MIC50 Staphylococcus aureus (+) (MRSA) ([2]; Example 2a, n = 3, LUH14616) [µM]	MIC90 Staphylococcus aureus (+) (MRSA) ([2]; Example 2a, n = 3, LUH14616) [µM]	MIC50 Escherichia coli ([3]; Example 2a, n = 3, ATCC 25922) [µM]	MIC90 Escherichia coli ([3]; Example 2a, n = 3, ATCC 25922) [µM]	MIC50 Streptococcus agalactiae (+) ([4]; Example 2a, n = 3, ATCC 13813) [µM]	MIC90 Streptococcus agalactiae (+) ([4]; Example 2a, n = 3, ATCC 13813) [µM]	cytotoxic effect on HepG2 cells (MTT) (HepG2 cell line)	MIC50 ([1]; Example 2a, n = 3, Isolate 2) [µM]	MIC90 [1, 5] [µM]	MIC90 [1, 6] [µM]	MIC50 ([2]; Example 2a, n = 3, LUH14616) [µM]	MIC90 [2, 7] [µM]	MIC50 ([3]; Example 2a, n = 3, ATCC 25922) [µM]	MIC90 [3, 8] [µM]	MIC90 [3, 9] [µM]	MIC50 ([4]; Example 2a, n = 3, ATCC 13813) [µM]	MIC90 [4, 10] [µM]	also measured
[O-][S+](Sc1ccc(F)cc1)c1ccc(F)cc1 (centres unmarked) [Bis (4-fluorophenyl) thiosulfinate, Bis(4-fluorophenyl) thiosulfinate]	130 (≈ 35.1 µg/mL)	830 (≈ 224 µg/mL)	280 (≈ 75.7 µg/mL)	1770 (≈ 478 µg/mL)	1000 (≈ 270 µg/mL)	>4000	1040 (≈ 281 µg/mL)	1670 (≈ 451 µg/mL)												
CC(C)SS(=O)(=O)C(C)C [Di-isopropyl thiosulfonate]									cytotoxic effects; also recorded: cytotoxicity is lowest											
Clc1ccc(SSc2ccc(Cl)cc2)cc1 [Bis (4-chlorophenyl) disulfide, Bis(4-chlorophenyl) disulfide]									cytotoxic effects	1350 (≈ 388 µg/mL)	> 4000	> 1000	< 8	190 (≈ 54.6 µg/mL)	> 4000	> 4000	> 1000	10 (≈ 2.87 µg/mL)	70 (≈ 20.1 µg/mL)	MIC90 ([2]; Example 2b, FIG. 1, no MIC90 detected in the tested range, read-out: Average MIC90 S. aureus (Sau)): > 1000 µM; MIC90 ([4]; Example 2b, FIG. 1, no MIC90 detected in the tested range, read-out: Average MIC90 S. agalactiae (Sag)): > 1000 µM
O=S(=O)(Sc1ccc(Cl)cc1)c1ccc(Cl)cc1 [Bis (4-chlorophenyl) thiosulfonate, Bis(4-chlorophenyl) thiosulfonate]	90	500	60	750	>1000	>1000	160	500	cytotoxic effects											
Fc1ccc(SSc2ccc(F)cc2)cc1 [Bis (4-fluorophenyl) disulfide, Bis(4-fluorophenyl) disulfide]									cytotoxic effects	250 (≈ 63.6 µg/mL)	> 4000	> 4000	< 8	2330 (≈ 593 µg/mL)	1250 (≈ 318 µg/mL)	> 4000	> 4000	210 (≈ 53.4 µg/mL)	500 (≈ 127 µg/mL)	
O=S(=O)(Sc1ccc(F)cc1)c1ccc(F)cc1 [Bis (4-fluorophenyl) thiosulfonate, Bis(4-fluorophenyl) thiosulfonate]	220	830	<8	1270	1500	>4000	1330	1670												
